Measurements reported in patent publication US9999659B2, “Treatments using a peptide and/or vaccine” (AFFIRIS AG, priority 2012, dated 2018).
No end group written: not given here.

Experiments:
[1] = system: polyclonal antibodies specific for human PCSK9 aa 153-162 or aa 153-165; assay: Binding ELISA: mimotopes coated on plates, detected by mouse sera raised against the original PCSK9 sequence; conditions: mimotope coated at 1 μmol/mL; titer = serum dilution where 50% of ODmax is reached
Excerpt: FIGS. 1A and 1B show detection of PCSK9 mimotopes sequences by mouse sera containing polyclonal antibodies specific for human PCSK9 aa 153-162 or aa 153-165
The graphs display median titers from all mimotopes compared to the irrelevant negative control. As a positive control the original human PCSK9 sequence is included: aa 153-162 or aa 153-165. Mimotopes with values over 1:50.000 are considered as good candidates.
Mimotopes were coated on ELISA plates at a concentration of 1 μmol/mL. After blocking unspecific binding (1% BSA in PBS) appropriate dilutions of sera from mice injected with the original human PCSK9 sequence aa 153-162 or aa 153-165 (SEQ ID No. 3) were added and incubated for approximately 1 hour. Subsequently, detection with anti-mouse IgG antibodies was performed. ABTS was used as substrate. OD measurements were performed at 405 nm and titers were defined as the dilution of the serum where 50% of the ODmax is reached.

[2] = system: polyclonal antibodies in mouse sera raised against original PCSK9 sequence (aa 153-162 or aa 153-165); assay: Competition ELISA: mimotope competes with the original PCSK9 sequence for binding of polyclonal antibodies in mouse sera; conditions: 20 μg peptide incubated with sera; irrelevant peptide = 0% competition
Excerpt: FIGS. 2A and 2B show the ability of PCSK9 mimotopes to compete with the original PCSK9 sequence (aa 153-162 or aa 153-165) for binding polyclonal antibodies in mouse sera raised specifically against the latter.
All mimotopes are compared to the negative group (0% competition by an irrelevant peptide). As a positive control for each competition ELISA the original PCSK9 sequences were used (aa 153-162 or aa 153-165).
The graphs display the ability (in percent) of the mimotopes to compete with the original PCSK9 sequence (aa 153-162 or aa 153-165) for binding polyclonal antibodies raised against the latter.
20 μg of each indicated peptide was incubated with sera from mice injected with original PCSK9 sequence (aa 153-162 or aa 153-165: SEQ ID No. 2). Sera were then incubated on ELISA plates coated with the original PCSK9 sequence (aa 153-162 or aa 153-165: SEQ ID No. 2). Detection was performed with anti-mouse IgG antibodies, ABTS was used as a chromogenic substrate and optical density (OD) was measured at 405 nm.
Mimotopes diminishing >20% subsequent binding of the polyclonal antibodies from the sera to the original human PCSK9 epitope (aa 153-162 or 153-165: SEQ ID No. 3) coated on the ELISA plates were considered as competing mimotopes and as good candidates.

Balb/c mice = assay: Total cholesterol assay in immunized mice; format: in vivo, mouse
Method: The peptides were conjugated via the heterobifunctional linker GMBS (4-Maleimidobutyric acid N-hydroxysuccinimide ester) to KLH (Keyhole Limpet Hemocyanin).
5 Balb/c mice were subcutaneously immunized. Mice had access to food and water ad libitum and were kept under a 12 h light/dark cycle. The age of mice at the beginning of experiments was 8 to 10 weeks.
Mice were injected four times in 2 week intervals with 15 μg of net peptide coupled to KLH and adsorbed to Alhydrogel as adjuvant in a volume of 1 ml in total.
Blood was taken approximately 2 weeks after the final injection.
Total cholesterol was measured with the LabAssay™ Cholesterol Kit (Wako).
For this purpose mice have been immunized with HPLC purified peptides coupled to KLH and formulated with an adjuvant (Alum) as vaccines (Sequence-KLH/Alum). In the first experiment, a direct comparison between the original PCSK9 sequence and the novel sequence […] has been performed. Here, mice have been immunized with irrelevant peptide vaccine (irrelevant peptide-KLH/Alum) as a negative control group, original PCSK9 sequence vaccine ([…]-KLH/Alum) and the novel sequence vaccine ([…]-KLH/Alum). The latter group ([…]-KLH/Alum) has been used not only to compare its functionality of the induced antibodies to the functionality of the antibodies generated using the original PCSK9 sequence vaccine ([…]-KLH/Alum), but also as a bridging group between different experiments.
Subsequently, a second experiment has been performed wherein mice have been immunized with irrelevant peptide as a negative control group and all the three novel sequences […], […] and […], all coupled to KLH and formulated as vaccines. As it has been already mentioned above, the mice immunized with the novel sequence ([…]-KLH/Alum) have been used as a bridging group between the experiments. In fact, the bridging group injected with the novel sequence ([…]-KLH/Alum) is behaving in a similar way in both experiments (FIGS. 5A, 5B, 6A and 6B) and most importantly, all three groups immunized with vaccines containing one of the sequences […], […] or […] behave in a very similar way in terms of reduction of plasma total cholesterol levels (FIGS. 6A and 6B).

Substance | Median Titer Binding ELISA (ODmax/2) [1] | % Competition compared to the related control group [2] | total cholesterol compared to the group injected with vaccine containing the original PCSK9 sequence SIPWNLERIT (Balb/c mice; result in words) | further results
72 (VQPWSLERLL; Artificial Sequence, Mimotope) [compound 72] | 166,000 | 66% | – | –
73 (SVPWSLERLT; Artificial Sequence, Mimotope) [compound 73] | 251,000 | 74% | – | –
SIPWSLERIT-KLH/Alum: novel sequence vaccine: peptide SIPWSLERIT (SEQ ID No. 21) coupled to KLH and formulated with adjuvant Alum (also: coupled to KLH, site not given here) | – | – | significant reduction | levels of total cholesterol in comparison to the negative control group (Balb/c mice; FIGS. 5A and 5B, result in words): strongly reduce; % decrease of TC compared to the irrelevant (negative) control group (Balb/c mice; first experiment, FIG. 5B, mice immunized with Sequence-KLH/Alum): 35-40%; total cholesterol compared to the group injected with vaccine containing the original PCSK9 sequence SIPWNLERIT (Balb/c mice; result in words, listed as SIPWSLERIT): significantly reduce
SVPWNLERIQ: vaccine containing novel sequence SVPWNLERIQ (SEQ ID No. 60), coupled to KLH and formulated as vaccine (also: coupled to KLH) | – | – | significantly reduce | –
VIPWNLERIL: vaccine containing novel sequence VIPWNLERIL (SEQ ID No. 55), coupled to KLH and formulated as vaccine (also: coupled to KLH) | – | – | significantly reduce | –
